{"source": "patent US20190076431A1", "about": "“SRC INHIBITOR TO BLOCK CELL SURFACE GRP78 EXPRESSION” (University of Southern California, priority 2016, published 2019)", "key": {"csGRP78": {"tested_on": "csGRP78", "assay": "csGRP78 by flow cytometry in CD138+ MM cells from the bone marrow of a MM patient", "format": "cell-based, human", "details": "DAS 0.3 μM for 24 hr", "procedure": "FIG. 11. […] (A) Peripheral blood mononuclear cells were isolated from the bone marrow of a MM patient and sorted into CD138+ (blue) and CD138− (non-malignant) cells (orange) and csGRP78 was measured by flow cytometry, with RPMI-8226 MM cell line (red) analyzed in parallel. (B) CD138+ MM cells were treated with DAS (0.3 μM) for 24 hr and assayed for csGRP78 by flow cytometry."}, "[1]": {"assay": "Enhancement of proteasome based therapy (summary statement)"}, "cell surface GRP78": {"tested_on": "cell surface GRP78", "assay": "Biotinylated cell surface protein levels after DAS treatment of H929 MM cells (Western blot)", "format": "cell-based", "details": "DAS 1 μM for the indicated time, biotinylated cell surface proteins", "description": "Cell Surface Protein Biotinylation and Avidin Pull-down—Following treatment, the cells were washed with cold PBS 3 times. EZ-Link Sulfo-NHS-SS-Biotin (Thermo Scientific, Waltham, Mass.) in PBS at 0.5 mg/ml was added and the cells were gently shaken at 4° C. for 30 min. To stop the biotinylation reaction, the biotin solution was removed, and the cells were rinsed three times with the quenching buffer containing Tris-Cl pH 7.4 in cold PBS. Then cells were rinsed with cold PBS and subjected to either sodium carbonate extraction (see below) or radioimmune precipitation (RIPA) lysis. The RIPA lysis buffer was supplemented with protease and phosphatase inhibitor cocktail (Thermo Scientific). Protein concentrations were determined by Bradford assay (Bio-Rad Lab, Hercules, Calif.). Part of the lysate was saved as whole cell lysate for Western blots to measure the total level of the target proteins. To purify the surface proteins, the remaining lysates were mixed with High Capacity NeutrAvidin Agarose Resin (Thermo Scientific) at room temperature for 1 h, and the resin was washed by RIPA buffer and centrifuged at 3,000× g for 1 min ten times. […]\nImmunoblot Analysis—Protein samples were subjected to 10% or 15% SDS-PAGE and Western blot analysis as previously described (9). […] Protein levels were visualized and quantitated by ChemiDoc™ XRS+ Imager (Bio-Rad Lab) or LI-COR Odyssey (LI-COR Biosciences)."}}}
{"smiles": "Cc1nc(Nc2ncc(C(=O)Nc3c(C)cccc3Cl)s2)cc(N2CCN(CCO)CC2)n1", "note": "[Dasatinib, dasatinib]", "values": [{"measurement": "csGRP78 by flow cytometry", "setting": "csGRP78", "result": "Suppresses Cell Surface GRP78"}, {"measurement": "effect on proteasome based therapy", "setting": "[1]", "result": "enhance proteasome based therapy"}, {"measurement": "cell surface GRP78 expression", "setting": "cell surface GRP78", "result": "Suppresses Cell Surface GRP78"}]}
